Data taken from paper PMC12901191, “Detection and pharmacokinetics of licochalcone A in brains of neuroinflammatory mouse model” (Naunyn-Schmiedeberg's Archives of Pharmacology, 2025).
Where two headings read alike, the source gives them in different places.

How the values were obtained:
[1] = design: method as in Weng et al. [2019]; conditions: ref Weng et al. [2019], cited from earlier work
[2] = system: LPS-neuroinflammatory mouse model; test: Novel object recognition (NOR) test in LPS-neuroinflammatory mouse model; format: in vivo, Swiss albino mice; conditions: drug control group (saline + LCA 20 mg/kg ip) vs control group
Text: (§1) A neuroinflammatory mouse model induced by LPS was developed as described before by Lee et al. ([2008a]). This neuroinflammatory model was well-characterized previously by our research group, showing memory impairment, neuroinflammation, and neurodegenerative changes in the cortex and hippocampus (Zakaria et al. [2016]; Abdel-Kader et al. [2021]; Samir et al. [2023]; Wagdy et al. [2023]).
(§2) Mice were divided randomly into four groups as follows: (i) control group, mice received vehicle injections (saline followed by DMSO/corn-oil vehicle); (ii) LPS onlygroup, LPS followed by the DMSO/corn-oil vehicle; (iii) treatment group, LPS followed by LCA; and (iv) drug control group, saline followed by LCA. […] This timing also avoids potential direct pharmacological interaction and is consistent with previous post-LPS treatment protocols (Zakaria et al. [2016]; Badshah et al. [2016]).
(§3) The behavioral assessment was performed 24 h after the final dose (day 8), after which all mice were sacrificed, and their brains were collected for subsequent bioanalysis (Fig. 1).
A total number of 40 mice were randomly assigned into four groups (n = 10 per group) before performing the behavioral experiments and kept blinded throughout the study until all data had been collected. The experimental unit in these assays was a single animal, and the primary outcomes were memory and cognitive functions. […]

[3] = Permeability of LCA across BBB: GC-MS/MS detection and quantification in brain tissue after the treatment regimen; format: in vivo, Swiss albino mice; conditions: treated (LPS + LCA) and drug control groups; peak at RT 11.22 min
Text: as §2, §3
(§4) Mice were sacrificed by cervical dislocation, and their brains were collected and separated from the cerebellum. The collected brains were washed with ice-cold Tris buffer (5 mM, pH 7.4) and then homogenized with 1 mL of the Tris buffer/100 mg brain using the 5-mL Dounce homogenizer. The brain homogenates were stored at − 80 °C till analysis. […] The homogenization included the entire brain components, allowing for a comprehensive analysis of LCA in the samples.
Brain homogenates were removed from the − 80 °C freezer and allowed to come to room temperature. […]
For both qualitative and quantitative analysis on mice brain samples, the MSD was operated in time-segmented MRM mode for the selected transition ions.

[4] = Pharmacokinetic study of LCA in mice brain tissues (non-compartmental analysis); format: in vivo, Swiss albino mice
Procedure: as §4
Brain homogenates were removed from the − 80 °C freezer and allowed to come to room temperature. Brain matrix extraction was performed as described before (Paulke et al. [2006]) with slight modifications. Briefly, in tightly sealed polypropylene tubes, 300 µL brain homogenate was mixed with 300 µL methanol, 200 µL tert-butyl hydroquinone (TBHQ) solution (5 mg/mL), and 200 µL HCl (1 M). The reaction mixture was vortexed for 1 min and inserted into a heat block at 90 °C for 2 h. The reaction tubes were then centrifuged at 3700 × g for 10 min, and the supernatant was collected in micro-centrifuge tubes and transferred for derivatization.
The chosen method for derivatization in this study involves silylation, utilizing the N, O-Bis(trimethylsilyl) trifluoroacetamide (BSTFA) as a silylating agent. The derivatization reaction is employed to produce silyl derivatives of the analyte, which are more volatile and more thermally stable. The reaction replaces active hydrogens with trimethylsilyl groups (TMS) through SN2 nucleophilic attack (Halket and Zaikin [2003]). Extracted samples or reference standards were first placed in a vacuum concentrator for 2 h before performing the derivatization reaction to ensure complete dryness. Dried sample residues were derivatized by adding 150 µL of the mixture of BSTFA and pyridine in a (4:1) ratio into the samples’ tubes. The derivatization reaction was performed at 60 °C for 1 h (Fig. 2). The tubes were centrifuged at 21,460 × g for 1 min and transferred to glass vials suitable for GC–MS/MS analysis.
For pharmacokinetic analysis, 30 adult male Swiss albino mice were randomly divided into six groups (n = 5 for each group), according to sample collection times. […] Mice were sacrificed, and brain tissues were collected after 0, 2, 4, 6, 8, and 24 h post-dosing and were then kept at − 80 °C before sample treatment. Collected brain samples were then extracted and derivatized as described previously and then further analyzed using the GC–MS/MS in MRM mode using the established MRM transitions. Pharmacokinetic parameters were determined by non-compartmental analysis using PK solutions software, version 2.0 (Summit Research Services).

[5] = system: LPS-neuroinflammatory mouse model; test: Y-maze spontaneous alternation test in LPS-neuroinflammatory mouse model; format: in vivo, Swiss albino mice
Procedure: as §1, with “[2023]). […]” for “[2023]).”
The short-term spatial working memory and exploratory activity of the mice were assessed using the Y-maze spontaneous alteration test, according to the working protocol of Arai et al. ([2001]). […] The sequences of animal’s entries in the arms were recorded. For an entry to be counted, the four paws and the tail of the animal have to be inside the arm. […] Working memory was calculated based on the number of spontaneous alternations, which is defined as successive entries into three distinct arms consecutively without any repeated entry to any of the arms. The results were expressed as “spontaneous alternation percentage” using the equation: % spontaneous alternation = [Spontaneous alternations/(Total number of entries − 2)] × 100.

[6] = intravenous 5 mg/kg single dose
[7] = male, Swiss albino, mouse, brain, ip, 20 mg/kg
[8] = single ip 20 mg/kg LCA after 7 days LPS, brain tissue, mean ± SD, n = 5

detection of LCA in brain (passage of BBB) [3]: presence of LCA peak
Tmax [4, 7]: 4 h
half-life [4, 7]: 17.1 ± 5.98 h
MRT last ([4]; male, Swiss albino, mouse, brain, ip, 20 mg/kg, read-out: MRT0-t): 10.5 ± 0.69 h
Cl/F [4, 8]: 17.90 ± 5.33 (mg/kg)/h
Vz/F [4, 8]: 529.74 ± 139.18 mg/kg
concentration in brain tissue until 8 h post-injection ([4]; single ip 20 mg/kg LCA after 7 days LPS, up to 8 h post-injection): above 15 µg/mg
Structure (SMILES): C=CC(C)(C)c1cc(/C=C/C(=O)c2ccc(O)cc2)c(OC)cc1O [LCA, (2E)−3-[4-Hydroxy-2-methoxy-5-(2-methylbut-3-en-2-yl)phenyl]−1-(4-hydroxyphenyl)prop-2-en-1-one]
Cmax (plasma) [1, 6]: 3173.5 ± 483.0 ng/mL
Tmax (plasma) [1, 6]: 0.0833 h
Cmax (plasma) ([1]; oral 15 mg/kg single dose): 60.7 ± 13.9 ng/mL
Tmax (plasma) ([1]; oral 15 mg/kg single dose): 0.5 h
non-spatial memory (NOR), LCA alone vs control [2]: did not show alteration
explorative behavior / spatial short-term memory (spontaneous alternation %, Y-maze) ([5]; LPS + LCA vs LPS group, LCA 20 mg/kg ip days 4-7, LPS 250 µg/kg ip days 1-7, tested day 8, p < 0.01): restored the explorative behavior
spatial short-term memory (Y-maze), LCA alone vs control ([5]; drug control group (saline + LCA 20 mg/kg ip) vs control group): did not show alteration
